The source of these data is publication PMC5732813, “Novel piplartine-containing ruthenium complexes: synthesis, cell growth inhibition, apoptosis induction and ROS production on HCT116 cells” (Oncotarget, 2017).

The test system of assay [1] is BAD KO SV40 MEF (BAD gene knockout immortalized mouse embryonic fibroblast). As to the kind of experiment: Cytotoxic activity, alamar blue assay, BAD KO SV40 MEF. It counts as cell-based. Particulars: Mus musculus, Fibroblast; BAD KO SV40 MEF, 72 h incubation, alamar blue; read-out: IC50. The source says: (§1) HCT116 (human colon carcinoma), HepG2 (human hepatocellular carcinoma), HSC-3 (human oral squamous cell carcinoma), SCC-4 (human oral squamous cell carcinoma), SCC-9 (human oral squamous cell carcinoma), HL-60 (human promyelocytic leukemia), K-562 (human chronic myelogenous leukemia), B16-F10 (murine melanoma), MRC-5 (human lung fibroblast), WT SV40 MEF (wild-type immortalized mouse embryonic fibroblast) and BAD KO SV40 MEF (BAD gene knockout immortalized mouse embryonic fibroblast) cell lines were obtained from the American Type Culture Collection (ATCC, Manassas, VA, USA) and cultured in RPMI-1640 medium (Gibco-BRL, Gaithersburg, MD, USA) with 10% fetal bovine serum (Life, Carlsbad, CA, USA), 2 mM L-glutamine (Vetec Química Fina, Duque de Caxias, RJ, Brazil) and 50 μg/mL gentamycin (Life, Carlsbad, CA, USA). Adherent cells were collected by treatment with 0.25% trypsin EDTA solution (Gibco-BRL, Gaithersburg, MD, USA). All cell lines were cultured in flasks at 37°C in 5% CO2 and sub-cultured every 3-4 days to maintain exponential growth.
(§2) Cell viability was quantified using the alamar blue assay, according to Ahmed et al.. Cells were inserted in 96-well plates for all experiments (7 x 10^4 cells/mL for adherent cells or 3 x 10^5 cells/mL for suspended cells in 100 μL of medium). […] Negative controls received the vehicle that was used for diluting the compounds tested.
(Alamar Blue is a resazurin reagent that responds to reducing activity.)

Assay [2] concerns WT SV40 MEF (wild-type immortalized mouse embryonic fibroblast). As to the kind of experiment: Cytotoxic activity, alamar blue assay, WT SV40 MEF. It counts as cell-based. To be noted: Mus musculus, Fibroblast; WT SV40 MEF, 72 h incubation, alamar blue; read-out: IC50.
From the text: as §1, §2

In assay [3] the test system is SCC-4 (human oral squamous cell carcinoma). As to the kind of experiment: Cytotoxic activity, alamar blue assay, SCC-4. It counts as cell-based. To be noted: SCC-4, 72h of incubation, alamar blue; with 95% confidence interval.
From the text: as §1, §2

Assay [4] concerns HL-60 (human promyelocytic leukemia). As to the kind of experiment: Cytotoxic activity, alamar blue assay, HL-60. Particulars: HL-60, 72h of incubation, alamar blue; with 95% confidence interval. It counts as cell-based.
From the text: as §1, §2

Assay [5] deals with MRC-5 (human lung fibroblast). As to the kind of experiment: Cytotoxic activity, alamar blue assay, MRC-5 non-cancer cells. Particulars: MRC-5 non-cancer cells, 72h of incubation, alamar blue; with 95% confidence interval; read-out: IC50. It counts as cell-based.
From the text: as §1, §2

The subject of assay [6] is PBMC (human peripheral blood mononuclear cells). As to the kind of experiment: Cytotoxic activity, alamar blue assay, PBMC non-cancer cells. It counts as cell-based. To be noted: PBMC non-cancer cells, 72h of incubation, alamar blue; with 95% confidence interval; read-out: IC50. The protocol: PBMCs were washed and resuspended at a concentration of 3 x 10^5 cells/mL in RPMI 1640 medium with 20% fetal bovine serum, 2 mM glutamine and 50 μg/mL gentamycin at 37°C with 5% CO2. […] The Research Ethics Committee of the Oswaldo Cruz Foundation (Salvador, Bahia, Brazil) approved the experimental protocol (# 031019/2013). All participants signed a written informed consent to participate in the study.
as §2

The subject of assay [7] is cancer multicellular spheroids formed from HCT116 cells. As to the kind of experiment: 3D multicellular spheroids culture, alamar blue assay. It counts as cell-based, human. Particulars: 3D spheroids of HCT116, 72 h treatment, alamar blue; read-out: IC50. The protocol: as §2
HCT116 cells were cultivated in 3D multicellular spheroids. Briefly, 100 μL of a solution of cells (0.5 x 10^6 cells/mL) were inserted in 96-well plate with a cell-repellent surface (Greiner Bio-One, Kremsmünster, Austria) and cultured in RPMI 1640 medium with 10% fetal bovine serum, 2 mM glutamine, 3% matrigel (BD Biosciences, San Jose, CA, EUA) and 50 μg/mL gentamycin at 37°C with 5% CO2. […] Negative control received the vehicle that was used for diluting the compounds tested. In the end of the experiment, morphological changes were examined by light microscopy (Olympus BX41, Tokyo, Japan) using Image-Pro software (Media Cybernetics, Inc. Silver Spring, USA) and the cell viability was determined by alamar blue assay as described above.

A further assay relates to HCT116 cells. As to the kind of experiment: Internucleosomal DNA fragmentation and cell cycle distribution (DNA content, flow cytometry). It counts as cell-based, human. To be noted: HCT116, 3 μM, mean ± S.E.M. The method, then:
Cells were harvested in a permeabilization solution containing 0.1% triton X-100 (Sigma Chemical Co. St Louis, MO, USA), 2 μg/mL propidium iodide (Sigma Chemical Co. St Louis, MO, USA), 0.1% sodium citrate and 100 μg/mL RNAse (Sigma Chemical Co. St Louis, MO, USA) and incubated in the dark for 15 min at room temperature.
On the technique in general: Flow cytometry measures light scatter and fluorescence of single cells or particles in a stream.

A word on the IC50: it is the concentration that gives 50% inhibition. Consider `O=c1[nH]cc(F)c(=O)[nH]1` [5-fluorouracil], for which the IC50 in assay [1] is 7.3 µM; in assay [2], 1.7 µM.

Turning to `O=C1[O][Pt]2([NH][C@@H]3CCCC[C@H]3[NH]2)[O]C1=O` [Oxaliplatin], the IC50 in assay [3] is 7.7 µM; in assay [4], 0.6 µM; in assay [5], 1.3 µM; in assay [6], 9.4 µM; in assay [7], 9.3 µM. Moreover, the results for the “DNA content (%) S” value in the assay with HCT116 cells (24h) and in the assay on HCT116 cells (48h) were 16.9 ± 2.0% and 17.4 ± 1.9%, respectively.
